Paper PMC6650905, “Development of a Novel Series of Anticancer and Antidiabetic: Spirothiazolidines Analogs” (Molecules, 2019)

Legend:
[1] = target: T1, alpha-glucosidase (Saccharomyces cerevisiae); experiment: p-nitrophenol release, absorbance […] nm; format: biochemical; conditions: p-nitrophenyl alpha-D-glucopyranoside 5 mM stock (20 μL), 100 mM phosphate pH 6.8, 37 °C, 15 min preincubation
T1 construct: gene MAL12; commercial preparation from Sigma-Aldrich

[2] = target: T2, alpha-amylase (α–amylase); experiment: DNS colorimetric assay; format: biochemical; conditions: starch 0.5%, 20 mM phosphate pH 6.9, 25 °C, 10 min preincubation
T2 construct: commercial preparation from Sigma-Aldrich

Row | Structure (SMILES) | ** IC50 [1] [µg/mL] | ** IC50 [2] [µg/mL]
1 | Nc1ccc(N2C(=O)CSC23CCCCC3)cc1 [compound 1, 4-(4-aminophenyl)-1-thia-4-azaspiro[4.5]decan-3-one] | 120.22 | 297.8
2 | NN=C1CSC2(CCCCC2)N1c1ccc(N)cc1 [compound 2, 4-(3-hydrazono-1-thia-4-azaspiro[4.5]decan-4-yl)aniline] | 363.67 | 421.42
3 | N#Cc1c(N)nc2c(c1-c1ccc(Cl)cc1)SC1(CCCCC1)N2c1ccc(N)cc1 [compound 6, 5′-amino-3′-(4-aminophenyl)-7′-(4-chlorophenyl)-3′H-spiro[cyclohexane-1,2′-thiazolo[4,5-b]pyridine]-6′-carbonitrile] | 63.6 | 94.9
4 | N#Cc1c(-c2ccc(Cl)cc2)c2c([nH]c1=O)N(c1ccc(N)cc1)C1(CCCCC1)S2 [compound 7, 3′-(4-aminophenyl)-7′-(4-chlorophenyl)-5′-oxo-4′,5′-dihydro-3′H-spiro[cyclohexane-1,2′-thiazolo[4,5-b]pyridine]-6′-carbonitrile] | 117.36 | 239.37
5 | Nc1ccc(N2C(=O)C(=Cc3ccc(Cl)cc3)SC23CCCCC3)cc1 [compound 8, 4-(4-aminophenyl)-2-(4-chlorobenzylidene)-1-thia-4-azaspiro[4.5]decan-3-one] | 114.45 | 199.01
6 | Nc1ccc(N2c3[nH]nc(-c4ccc(Cl)cc4)c3SC23CCCCC3)cc1 [compound 9, 4-(3′-(4-chlorophenyl)-spiro[cyclohexane-1,5′-pyrazolo[3,4-d]thiazol]-6′ (1′H)-yl)aniline] | 52.47 | 58.85
7 | N#Cc1c(-c2ccc(Cl)cc2)c2c(n(CCO)c1=O)N(c1ccc(N)cc1)C1(CCCCC1)S2 [compound 13, 3′-(4-aminophenyl)-7′-(4-chlorophenyl)-4′-(2-hydroxyethyl)-5′-oxo-4′,5′-dihydro-3′H-spiro[cyclohexane-1,2′-thiazolo[4,5-b]pyridine]-6′-carbonitrile] | 118.11 | 271.3
8 | CCOC(=O)Cn1c2c(c(-c3ccc(Cl)cc3)c(C#N)c1=O)SC1(CCCCC1)N2c1ccc(N)cc1 [compound 16, Ethyl 2-(3′-(4-aminophenyl)-7′-(4-chlorophenyl)-6′-cyano-5′-oxo-3′,5′-dihydro-4′H-spiro [cyclohexane-1,2′-thiazolo[4,5-b]pyridin]-4′-yl)acetate] | 570.4 | > 1000
